Data taken from patent publication US20150274701A1, “NEW AZIDES, METHOD FOR PRODUCING SAME AND APPLICATIONS THEREOF” (COMMISSARIAT A L'ENERGIE ATOMIQUE ET AUX ENERGIES …, priority 2012, published 2015).

Assays:
[1] = Azide/alkyne click reaction kinetics in a buffered medium (fluorescent test); conditions: for Reaction rate / Ligation yield: aqueous medium at neutral pH, azide, alkyne and Cu 17.5 μM, sodium ascorbate 475 μM (25 eq); for Ligation yield: monitored for 20 minutes
Procedure: The azide/alkyne coupling reaction kinetics obtained using azides of the present invention and also the kinetics obtained using copper-chelating compounds and azides of the prior art were studied.
The kinetics were done under concentration conditions conventional in bioconjugation, i.e. in an aqueous medium at neutral pH and under conditions of low concentration of reagents: azide, alkyne and Cu 17.5 μM, sodium ascorbate 475 μM (25 eq).
The reactivity of the azides of the invention with respect to the azide/alkyne “click” reaction was evaluated by means of a fluorescent test (scheme 1) which makes it possible to establish the kinetic parameters of the reaction and to compare them with the solutions from the literature. This test uses a pro-fluorescent alkyne C1 which forms a highly fluorescent cycloaddition product C2. The synthesis and the fluorescence properties are described in the literature.
100 μl of a solution containing 35 μM of alkyne C1 and 35 μm of azide RN3 dissolved in a DMF/H2O mixture (50/50) are added to 50 μl of an aqueous solution containing 70 μM of CuSO4. The reaction is then initiated by adding 50 μl of an aqueous solution containing 1.75 mM of ascorbic acid (AS). The cycloaddition reaction is monitored by measuring, every 5 seconds, for 20 minutes, the fluorescence intensity at 400 nm following excitation at 320 nm. The reaction yield is calculated by means of a calibration range previously established with the cyclo-adduct C2.

[2] = Ligation kinetics in a complex medium (cell lysate), fluorescent test; conditions: azide and alkyne 17.5 μM, Cu 350 μM, sodium ascorbate 8.75 mM (500 eq)
Procedure: An experiment was also carried out in a cell culture medium. The process was carried out as follows:
100 μl of a solution containing 35 μM of alkyne C1 and 35 μM of azide RN3 dissolved in cell lysate are added to 50 μl of cell lysate containing 1.4 mM of CuSO4. The reaction is then initiated by adding 50 μl of an aqueous solution containing 1.75 mM of ascorbic acid (AS). The cycloaddition reaction is monitored by measuring, every 5 seconds, for 20 minutes, the fluorescence intensity at 400 nm following excitation at 320 nm. The reaction yield is calculated by means of a calibration range previously established with the cyclo-adduct C2.
Conditions: Azide and alkyne 17.5 μM, Cu 350 μM, sodium ascorbate 8.75 mM (500 eq).

HuH-7 cells = experiment: Ligation in living cells, fluorescence microscopy; format: cell-based; conditions: HuH-7 cells pre-incubated with 62.5 nM paclitaxel-alkyne 2; 100 μM copper complex of compound 1 for 4 h
Procedure: HuH-7 cells fixed on 96-well plates, incubated beforehand in the presence of paclitaxel 2 comprising an alkyne function, were treated with the copper complex above.
The cells were treated with 100 μl of a 62.5 nM solution of compound 2 dissolved in 0.1M phosphate buffer, and then incubated at 37° C. for 30 min. The cells are then washed twice by adding 100 μl of 0.1M phosphate buffer and then treated for 4 h with 100 μl of a 100 μM solution of the copper complex of compound 1. The cells are again washed twice by adding 100 μl of 0.1M phosphate buffer and then fixed by treating with 150 μl of a 4% formaldehyde solution. After fixing for 15 min, the cells are washed twice by adding 100 μl of 0.1M phosphate buffer and then incubated with a 62.5 nM solution of Tubulin Tracker® Green 3 for 30 min at 37° C. The cells are again washed with 0.1M phosphate buffer and then observed by fluorescence microscopy.
After cell washing steps, the fluorescence of the rhodamine part of the copper complex of compound 1 was measured. […] Compound 3, a covalent conjugate between the paclitaxel and the Oregon Green® fluorophore, was used as a control.
FIG. 8A illustrates the localization of the cell nucleus by the 4′,6′-diamidino-2-phenylindole reagent.

[3] = Click reaction kinetics of chelating azides in cell lysate (fluorescent test); conditions: cell lysate of Jurkat (human T-cell leukemia), alkyne and azide 17 μM, copper sulfate 34 μM, sodium ascorbate 850 μM
Procedure: (§1) The reaction kinetics were determined by means of a fluorescent test illustrated by the reaction below, making it possible to establish the kinetic parameters of the reaction and to compare them with the solutions from the literature. This test uses a pro-fluorescent alkyne which forms a highly fluorescent cycloaddition product.
(§2) The operating conditions are the following: the same concentration of 17 μM was used for the alkyne and for the azide. The copper sulfate concentration was 34 μM and the sodium ascorbate (AS) concentration was 850 μM.
(§3) The process was carried out, on the one hand, in a 0.1M phosphate buffer at pH 7.4 and, on the other hand, in a cell lysate obtained by means of three cycles of sonication of Jurkat ([…]) for 30 seconds. The alkyne, the azide and the copper sulfate are mixed at ambient temperature for 30 minutes and then the kinetics are initiated by adding sodium ascorbate.

[4] = Click reaction kinetics of chelating azides in phosphate buffer (fluorescent test); conditions: 0.1M phosphate buffer pH 7.4; alkyne and azide 17 μM, copper sulfate 34 μM, sodium ascorbate 850 μM
Procedure: as §1, §2, §3

Row | Molecule | Reaction rate [1] | Ligation yield [1] | position of the ligation yield versus time curve in FIG. 5 [2] | click reaction activity (FIG. 7) [3] | click reaction activity (FIG. 6) [4] | further results
1 | Cn1c(CN(CCCN=[N+]=[N-])Cc2nc3ccccc3n2C)nc2ccccc21 [Preparation 1, 3-Azido-N,N-bis((1-methyl-1H-benzo[d]imidazol-2-yl)methyl)propan-1-amine] | 101.7 µM/min | 65% |  |  |  | click reaction faster than the comparable compounds of the prior art ([1]; buffered medium): approximately 20 times
2 | Diethyl 5,5′-(4,4′-(((3-azidopropyl)azanediyl)bis(methylene))bis(1H-1,2,3-triazole-4,1-diyl))dipentanoate [Preparation 3] | 16.5 µM/min | 67% | middle curve |  |  | ligation yields relative to the best comparable compounds of the prior art ([1]; buffered medium): twice as high
3 | [N-]=[N+]=NCc1ccccn1 [Comparative example 2, reference compound] | 4.2 µM/min | 28% |  |  |  | 
4 | COc1ccnc(CN=[N+]=[N-])c1 [Comparative example 3, reference compound] | 3.5 µM/min | 35% | lower curves |  |  | 
5 | CN(C)c1ccc2c(-c3cc(C(=O)NCCCN4C(=O)CC(SCC(=O)NCCCNC(=O)CCCn5cc(CN(CCCN=[N+]=[N-])Cc6cn(C(C)(C)C)nn6)nn5)C4=O)ccc3C(=O)[O-])c3ccc(=[N+](C)C)cc-3oc2c1 (centres unmarked) [azide 1, 4-((3-(3((2-((3-(4-(4-(((3-azidopropyl)((1-(tert-butyl)-1H-1,2,3-triazol-4-yl)methyl)amino)methyl)-1H-1,2,3-triazol-1-yl)butanamido)propyl)amino)-2-oxoethyl)thio)-2,5-dioxopyrrolidin-1-yl)propyl)carbamoyl)-2-(6-(dimethylamino)-3-(dimethyliminio)-3H-xanthen-9-yl)benzoate] |  |  |  |  |  | cell penetration and intracellular click coupling to paclitaxel-alkyne 2 bound to tubulin (FIG. 8) (HuH-7 cells): capable of penetrating inside the cells and of coupling
6 | [N-]=[N+]=NCCCN(Cc1cn(Cc2ccccc2)nn1)Cc1cn(Cc2ccccc2)nn1 [Preparation 2, 3-azido-N, N-bis((1-benzyl-1H-1,2,3-triazol-4-yl)methyl)propan-1-amine] | 10.8 µM/min | 45% |  |  |  | 
7 | CC(C)(C)n1cc(CN(CCCN=[N+]=[N-])Cc2cn(CCCCC(=O)O)nn2)nn1 [Example 2, 5-(4-(((3-azidopropyl)((1-(tert-butyl)-1H-1,2,3-triazol-4-yl)methyl)amino)methyl)-1H-1,2,3-triazol-1-yl)pentanoic acid] |  |  | upper curve | particularly effective | make it possible to carry out the click reaction with efficiency | click reaction activity (FIG. 7) ([3]; listed as A20): make it possible to carry out the click reaction with efficiency
8 | [N-]=[N+]=NCCCN(Cc1ccccn1)Cc1ccccn1 [Example A14, reference compound] |  |  |  | inactive | inactive | 
9 | [N-]=[N+]=NCCCN(Cc1cn(CCCCC(=O)O)nn1)Cc1cn(CCCCC(=O)O)nn1 [Example 1, 5,5′-(4,4′-(((3-azidopropyl)azanediyl)bis(methylene))bis(1H-1,2,3-triazole-4,1-diyl))dipentanoic acid] | 12.0 µM/min | 74% |  | make it possible to carry out the click reaction with efficiency | make it possible to carry out the click reaction with efficiency | ligation yields relative to the best comparable compounds of the prior art ([1]; buffered medium): twice as high
